Data from PubChem BioAssay (NCI).
Values joined by “and” are separate entries in the source; they are usually repeats but may differ in a detail not shown here. Equal values may be shown once.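 48-hour exposure; five concentrations; linearly interpolated endpoints. Abbreviation: GI50, concentration required for 50% inhibition of growth. TGI marks complete inhibition of growth.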

Tests used:
Experiment in all cases: inhibition of tumour cell growth, NCI panel, 48 h
[1] = test system: A549 NSCLC
[2] = test system: CCRF-CEM leukemia
[3] = test system: HOP-62 NSCLC
[4] = test system: HT29 colon
[5] = test system: KM12 colon
[6] = test system: PC-3 prostate
[7] = test system: SK-MEL-2 melanoma
[8] = test system: SNB-75 CNS
[9] = test system: SW-620 colon
[10] = test system: UACC-62 melanoma

| SMILES | GI50 [1] | TGI [1] | GI50 [2] [µM] | TGI [2] | GI50 [3] | TGI [3] | GI50 [4] | TGI [4] | GI50 [5] | TGI [5] | GI50 [6] [µM] | TGI [6] [µM] | GI50 [7] [µM] | TGI [7] [µM] | GI50 [8] [µM] | TGI [8] | GI50 [9] [µM] | TGI [9] | GI50 [10] | TGI [10] |
| --- | --- | --- | --- | --- | --- | --- | --- | --- | --- | --- | --- | --- | --- | --- | --- | --- | --- | --- | --- | --- |
| CN1CCN(C(=O)c2cc(-c3ccc4ncnc(N5CCc6cc(F)c(Cl)cc65)c4c3)cnc2N)CC1 | 0.194 µM | 1.8 µM | 0.266 | 4.92 µM | 0.244 µM | 4.46 µM | 0.216 µM | 4.57 µM | 0.312 µM | 1.83 µM | 0.176 | 3.78 | 0.238 | 1.02 | 0.0512 | 0.704 µM | 0.315 | 1.82 µM | 0.177 µM | 0.67 µM |
| CC(C)NCCCn1c(Sc2cc3c(cc2I)OCO3)nc2c(N)ncnc21 | 0.0872 µM | > 86.6 µM | 0.425 | > 100 µM | 0.263 µM | > 100 µM | 0.0381 µM | > 83.2 µM | 0.0592 µM | 0.755 µM | 0.133 | > 100 | 0.357 | > 83.2 | 0.727 | > 100 µM | 0.0592 | > 100 µM | 0.368 µM | > 41 µM |
| COc1cc2c(cc1OCCCn1c(-c3ccccn3)nc3ccccc31)N=C[C@@H]1CCCN1C2=O | 1.87 µM | 7.08 µM | 15.7 | > 25 µM | 2.92 µM | 9.57 µM | 3.61 µM | > 79.6 µM | 1.9 µM | 4.1 µM | 1.44 | > 30.6 | 1.52 | 3.94 | 1.72 | 5.73 µM | 2.47 | 8.33 µM | 1.48 µM | 3.04 µM |
| NC(CSC1c2ccccc2-c2ccccc21)C(=O)O (stereo not given) |  | > 100 µM |  | > 100 µM |  | > 100 µM |  | > 100 µM |  | > 100 µM |  | > 100 |  | > 100 |  | > 100 µM |  | > 100 µM |  | > 100 µM |
| O=C1NC(=O)C(N2C(=O)c3ccccc3C2=O)CC1O (stereo not given) | > 100 µM | > 100 µM | > 100 | > 100 µM | > 100 µM | > 100 µM | > 100 µM | > 100 µM | > 100 µM | > 100 µM | > 100 | > 100 | > 100 | > 100 | > 100 | > 100 µM | > 100 | > 100 µM | > 100 µM | > 100 µM |
| Cc1cc(S(=O)(=O)/N=C(/N)Nc2ccccc2O)c(SCc2ccccc2)cc1Cl | 10.2 µM | 32.1 µM | 5.95 | 39.8 µM | 20.7 µM | 37.3 µM | 32.5 µM | > 100 µM | 12.6 µM | 32.5 µM | 13.9 | 32.4 | 10.6 | 26.2 | 19.3 | 39.2 µM | 22.1 | 56.4 µM | 9.6 µM | 22.7 µM |
| O=C1c2cccnc2C(=O)c2c1c(C(=O)NCCCN1CCCCC1)c1ccccn21 | 1.25 µM | 3.8 µM | 3.26 | > 100 µM | 1.08 µM | 3.18 µM | 0.391 µM | 2.92 µM | 0.99 µM | 10.1 µM | 1.49 | 7.21 | 2.05 | 5.17 | 1.36 | 2.86 µM | 0.471 | 2.14 µM | 0.624 µM | 2.51 µM |
| Nc1nc(OCc2ccccc2)c2[nH]cnc2n1 | 35.1 µM and 48.9 µM | 338 µM and 240 µM | 39.5 | 319 µM and 274 µM | 42 µM and 23.5 µM | 209 µM and 70.9 µM | 45.8 µM and 39.9 µM | 400 µM and 175 µM | 59.6 µM and 62 µM | 400 µM and 307 µM | 53.7 | 628 | 25.1 | 177 | 13.9 | 67.3 µM and 86.1 µM | 98.5 | 400 µM and 289 µM | 25 µM and 17.3 µM | 128 µM and 90.7 µM |
| O=S(=O)(Nc1cc(Sc2cccc3cccnc23)c(O)c2ccccc12)c1ccc(F)cc1 | 0.538 µM | 3.17 µM | 0.544 | 11.9 µM | 2.05 µM | 17 µM | 1.84 µM | 6.59 µM | 2.48 µM | 14.2 µM | 0.74 | 12.1 | 1.84 | 7.52 | 3.68 | 15.2 µM | 1.41 | 3.86 µM | 1.85 µM | 4.39 µM |
| CCc1ccc2c(c1)N(CCO)C1=C(C(=O)OC1)C2c1cccc(Br)c1 (stereo not given) | 0.655 µM | 14.8 µM | 0.351 | 15.6 µM | 0.462 µM | 14.5 µM | 0.342 µM | 4.36 µM | 0.336 µM | 12.5 µM | 0.491 | 16.2 | 0.3 | 7.14 | 0.307 | 8.3 µM | 0.35 | 18.7 µM | 0.518 µM | 16.7 µM |
| CC(=O)/C=C/c1cn(C(=O)OC(C)(C)C)c2ccc(Br)cc12 | 18.8 µM | 52.4 µM | 1.07 | > 100 µM | 15.8 µM | 30.4 µM | 10.6 µM | 24.8 µM | 13.8 µM | 29.1 µM | 18.2 | > 79.2 | 20.9 | 54.6 | 14.4 | 39.3 µM | 19.1 | 39 µM | 20.6 µM | > 85.7 µM |
| CCCCCCCCCCCCCCCCCC[n+]1ccc2c(C)c3c(c(C)c2c1)c1cc(O)ccc1n3CC | 1.28 µM | 5.47 µM | 3.27 | 34.2 µM | 2.66 µM | 10.4 µM | 1.14 µM | 15.2 µM | 2.01 µM | > 100 µM | 1.3 | 11 | 1.58 | 3.27 | 2.27 | 12 µM | 1.79 | 7.1 µM | 1.29 µM | 3.38 µM |
| O=C1OCC2=C1C(c1ccc(Cl)c(Cl)c1)c1cc3c(cc1N2CCO)OCCO3 (stereo not given) | 0.299 µM | 11.8 µM | 0.184 | 16.7 µM | 0.295 µM | 15.1 µM | 0.148 µM | 0.502 µM | 0.172 µM | 7.58 µM | 0.189 | 8.66 | 0.137 | 1.11 | 0.128 | 9.2 µM | 0.16 | > 50 µM | 0.192 µM | 10.8 µM |
